Results taken from patent US20210315826A1, “NATURAL FLUORESCENT POLYDEDRAL AMINO ACID CRYSTALS FOR EFFICIENT ENTRAPMENT AND SYSTEMIC DELIVERY OF HYDROPHOBIC SMALL MOLECULES” (CORNELL UNIVERSITY, priority 2018, published 2021).

Assay: Entrapment efficiency of small molecules in L-His crystals (HPLC of supernatant)
Assay type: physicochemical
Conditions: within L-His crystals; determined by HPLC
Procedure: A 30 mg/mL solution of L-His (>99%, Sigma-Aldrich) was prepared by dissolving L-His powder in milli-Q water using a vortex mixer at ambient temperature in a Corning® 15 mL centrifuge tube with a closed cap. Then 500 μL of the aqueous solution of L-His and 500 μL of 200 proof ethanol (KOPTEC, PA, US) was added to 200 μL of the small molecule solution (2 mg/mL). The small molecules used in this study were Nile red (>98%, Sigma-Aldrich), pyrene (>98%, Sigma-Aldrich), β-carotene (>97%, Sigma-Aldrich), and doxorubicin HCl (DOX, >98%, Fluka, Mexico City, Mexico). The solution was vortexed for 15 seconds and kept static at ambient temperature. After 3 hours, crystals were collected and washed with ethanol to remove the free small molecules from the surface of the crystals and the supernatant was collected to measure the concentration of non-entrapped small molecules using HPLC. […] Each individual sample of small molecules was quantified based on an optimized method reported in the literature for β-carotene (Etzbach et al., “Characterization of Carotenoid Profiles in Goldenberry (Physalis peruviana L.) Fruits at Various Ripening Stages and in Different Plant Tissues by HPLC-DAD-APCI-MS^n,” Food Chem. 245:508-517 (2018), which is hereby incorporated by reference in its entirety), Nile red (Wu et al., “Drug Delivery to the Skin from Sub-Micron Polymeric Particle Formulations: Influence of Particle Size and Polymer Hydrophobicity,” Pharm Res. 26(8):1995-2001 (2009), which is hereby incorporated by reference in its entirety), pyrene (Jia et al., “Effect of Root Exudates on the Mobility of Pyrene in Mangrove Sediment-Water System,” Catena 162:396-401 (2017), which is hereby incorporated by reference in its entirety), and DOX (Chi et al., “Redox-Sensitive and Hyaluronic Acid Functionalized Liposomes for Cytoplasmic Drug Delivery to Osteosarcoma in Animal Models,” J. Control Release 261:113-125 (2017), which is hereby incorporated by reference in its entirety). […]

| Entrapment efficiency [%] | Structure (SMILES) |
| --- | --- |
| 62 | CCN(CC)c1ccc2nc3c4ccccc4c(=O)cc-3oc2c1 [Nile red] |
| ~96 | CC1=C(/C=C/C(C)=C/C=C/C(C)=C/C=C/C=C(C)/C=C/C=C(C)/C=C/C2=C(C)CCCC2(C)C)C(C)(C)CCC1 [β-carotene] |

| Structure (SMILES) | Entrapment efficiency [%] |
| --- | --- |
| c1cc2ccc3cccc4ccc(c1)c2c34 [pyrene] | 87 |
